Assay results taken from the NIST ThermoML archive (doi:10.1021/je0342163).

Experiment: wn = mass fraction of the nth substance listed

CC(F)(F)F [1,1,1-trifluoroethane] + FCC(F)(F)F
Details | surface tension liquid-gas [mN/m]
256.91 K, w1 = 0.7511 | 10.69
257.03 K, w1 = 0.263 | 12.6
257.14 K, w1 = 0.5656 | 11.49
258.79 K, w1 = 0.7508 | 10.37
258.87 K, w1 = 0.2627 | 12.39
260.95 K, w1 = 0.565 | 10.86
261 K, w1 = 0.7503 | 10.13
262.96 K, w1 = 0.75 | 9.8
263.05 K, w1 = 0.5646 | 10.49
264.97 K, w1 = 0.2618 | 11.46
264.97 K, w1 = 0.7496 | 9.615
265.07 K, w1 = 0.5643 | 10.39
266.84 K, w1 = 0.564 | 10.02
267.09 K, w1 = 0.7491 | 9.245
268.62 K, w1 = 0.7488 | 9.17
268.83 K, w1 = 0.2611 | 10.94
268.92 K, w1 = 0.5636 | 9.81
270.52 K, w1 = 0.5633 | 9.46
270.6 K, w1 = 0.7484 | 8.84
271.15 K, w1 = 0.2607 | 10.62
273.07 K, w1 = 0.5628 | 9.14
273.2 K, w1 = 0.2604 | 10.39
273.23 K, w1 = 0.7478 | 8.49
274.99 K, w1 = 0.5625 | 8.825
275.4 K, w1 = 0.7473 | 8.26
275.43 K, w1 = 0.26 | 10.06
277.04 K, w1 = 0.2597 | 9.845
277.27 K, w1 = 0.562 | 8.575
278.99 K, w1 = 0.5617 | 8.35
279.15 K, w1 = 0.2593 | 9.5
279.35 K, w1 = 0.7463 | 7.755
281.43 K, w1 = 0.2589 | 9.23
281.48 K, w1 = 0.5612 | 8
281.54 K, w1 = 0.7458 | 7.46
282.89 K, w1 = 0.2586 | 9.01
283.35 K, w1 = 0.5608 | 7.755
283.39 K, w1 = 0.7453 | 7.25
285.2 K, w1 = 0.5604 | 7.465
285.24 K, w1 = 0.2581 | 8.695
285.45 K, w1 = 0.7448 | 6.985
287.35 K, w1 = 0.5599 | 7.295
287.39 K, w1 = 0.7443 | 6.725
287.4 K, w1 = 0.2577 | 8.415
289.05 K, w1 = 0.7438 | 6.5
289.29 K, w1 = 0.5595 | 7.115
289.31 K, w1 = 0.2573 | 8.23
291.17 K, w1 = 0.7432 | 6.23
291.2 K, w1 = 0.5591 | 6.82
291.37 K, w1 = 0.2569 | 8.03
293.21 K, w1 = 0.2565 | 7.725
293.45 K, w1 = 0.2564 | 7.57
293.49 K, w1 = 0.5585 | 6.47
293.71 K, w1 = 0.7425 | 5.82
295.16 K, w1 = 0.5582 | 6.13
295.56 K, w1 = 0.7419 | 5.58
295.58 K, w1 = 0.256 | 7.285
297.38 K, w1 = 0.2556 | 7.06
297.49 K, w1 = 0.7413 | 5.375
297.52 K, w1 = 0.5576 | 5.875
299.41 K, w1 = 0.7407 | 5.14
299.51 K, w1 = 0.5571 | 5.72
299.53 K, w1 = 0.2552 | 6.855
301.41 K, w1 = 0.7401 | 4.89
301.53 K, w1 = 0.2547 | 6.585
302.95 K, w1 = 0.5563 | 5.335
303.65 K, w1 = 0.7394 | 4.63
303.66 K, w1 = 0.2542 | 6.325
305.21 K, w1 = 0.5557 | 5.055
305.38 K, w1 = 0.7388 | 4.425
305.56 K, w1 = 0.2538 | 6.13
307.4 K, w1 = 0.5552 | 4.755
307.46 K, w1 = 0.2534 | 5.835
307.74 K, w1 = 0.738 | 4.17
309.3 K, w1 = 0.5547 | 4.56
309.6 K, w1 = 0.2529 | 5.585
309.65 K, w1 = 0.7373 | 3.97
311.25 K, w1 = 0.2525 | 5.385
311.41 K, w1 = 0.5541 | 4.29
311.44 K, w1 = 0.7367 | 3.755
313.47 K, w1 = 0.736 | 3.5
313.55 K, w1 = 0.252 | 5.095
313.61 K, w1 = 0.5536 | 4.03
315.3 K, w1 = 0.5531 | 3.825
315.54 K, w1 = 0.7352 | 3.3
315.59 K, w1 = 0.2515 | 4.85
317.36 K, w1 = 0.2511 | 4.66
317.41 K, w1 = 0.5525 | 3.605
317.57 K, w1 = 0.7345 | 3.11
319.33 K, w1 = 0.552 | 3.415
319.39 K, w1 = 0.7338 | 2.875
319.66 K, w1 = 0.2506 | 4.41
321.23 K, w1 = 0.7331 | 2.685
321.33 K, w1 = 0.5515 | 3.18
322.01 K, w1 = 0.25 | 4.12
323.26 K, w1 = 0.2497 | 4
323.33 K, w1 = 0.7323 | 2.44
323.42 K, w1 = 0.5509 | 2.925
325.17 K, w1 = 0.5505 | 2.75
325.28 K, w1 = 0.7315 | 2.25
325.69 K, w1 = 0.2492 | 3.67
327.33 K, w1 = 0.2488 | 3.545
327.36 K, w1 = 0.7306 | 2.065
327.38 K, w1 = 0.5498 | 2.53
329.42 K, w1 = 0.7298 | 1.81
329.44 K, w1 = 0.5493 | 2.32
